ChEMBL document CHEMBL4819115, “Discovery of potent and selective reversible Bruton's tyrosine kinase inhibitors” (Bioorg Med Chem, 2021)
In brackets after ≈: the same amount, converted by molar mass. One block for each molecule: values may come before it.

How the values were obtained:
[1] = physchem; details: FaSSIF
[2] = Intrinsic clearance in rat microsomes; type: ADME, Microsome
[3] = Stability of the compound in mouse plasma assessed as parent compound remaining after 4 hrs; type: ADME, cell-free; details: read-out: Stabilty
[4] = Clearance in rat at 0.2 mg/kg, iv; type: ADME, organism-based; details: in vivo
[5] = Intrinsic clearance in human microsomes; type: ADME, Microsome
[6] = Cmax in rat at 10 mg/kg, po; type: ADME, organism-based; design: route oral, dose 10 mg/kg; details: in vivo
[7] = AUC(0 to 6 hrs) in rat at 10 mg/kg, po; type: ADME, organism-based; design: time < 6 hr, route oral, dose 10 mg/kg; details: in vivo
[8] = Half life in rat at 10 mg/kg, po; type: ADME, organism-based; details: in vivo
[9] = Oral bioavailability in rat at 10 mg/kg; type: ADME, organism-based; details: in vivo
[10] = Volume of distribution at steady state in rat at 0.2 mg/kg, iv; type: ADME, organism-based; details: in vivo, read-out: Vdss
[11] = Intrinsic clearance in mouse microsomes; type: ADME, Microsome
[12] = Stability of the compound in human plasma assessed as parent compound remaining after 4 hrs; type: ADME, cell-free; details: read-out: Stabilty
[13] = AUC(0 to 4 hrs) in rat at 0.2 mg/kg, iv; type: ADME, organism-based; design: time < 4 hr, route intravenous, dose 0.2 mg/kg; details: in vivo
[14] = Kinetic solubility of the compound; type: physicochemical; details: read-out: Kinetic_solubility

SMILES: CN1CCN(c2ccc(Nc3cc(-c4cccc(-n5ccc6cc(C7CC7)cc(F)c6c5=O)c4CO)cn(C)c3=O)nc2)CC1
solubility [1]: 31 µg/mL (≈ 51.1 µM)

SMILES: Cc1nn(C(C)C)c(C)c1-c1nc2nccc(-c3ccc4c(c3)CCCC[C@H]4NC(=O)c3nc(C(C)(C)C)no3)c2[nH]1
microsomal CLint [2]: 67 µL/min/mg
remaining at 4 h [3]: > 85%
CL [4]: 40.3 mL/min/kg
microsomal CLint [5]: 32 µL/min/mg
Cmax [6]: 849 ng/mL
AUC [7]: 3030 ng·h/mL
half-life [8]: 1.93 h
bioavailability [9]: 77%
Vd [10]: 2.62 L/kg
microsomal CLint [11]: 75 µL/min/mg
remaining at 4 h [12]: > 85%
AUC [13]: 79 ng·h/mL

SMILES: Cn1cc(-c2nc3c(-c4ccc(CNC(=O)c5nc(C(C)(C)C)no5)c(F)c4)ccnc3[nH]2)cn1
solubility kinetic [14]: 1.7 µM (≈ 0.807 µg/mL)
solubility [1]: 2 µg/mL (≈ 4.21 µM)

SMILES: Cn1cc(-c2nc3c(-c4ccc(C5(NC(=O)c6nc(C(C)(C)C)no6)CC5)cc4)ccnc3[nH]2)cn1
solubility [1]: 56 µg/mL (≈ 116 µM)

SMILES: Cc1nn(C2CCOCC2)cc1-c1nc2c(-c3ccc4c(c3)CCC[C@@H]4NC(=O)c3nc(C(C)(C)C)no3)ccnc2[nH]1
solubility [1]: 33 µg/mL (≈ 56.8 µM)

SMILES: Cc1nn(C(C)C)c(C)c1-c1nc2c(-c3ccc4c(c3)CCC[C@H]4NC(=O)c3nc(C(C)(C)C)no3)ccnc2[nH]1
solubility [1]: 56 µg/mL (≈ 101 µM)

The remaining lines, values ahead:

solubility [1]: 28 µg/mL (≈ 52 µM)
SMILES: Cc1c(-c2nc3c(-c4ccc5c(c4)CCC[C@@H]5NC(=O)c4nc(C(C)(C)C)no4)ccnc3[nH]2)cnn1C(C)C

solubility [1]: 7 µg/mL (≈ 12.1 µM)
SMILES: Cc1c(-c2nc3c(-c4ccc5c(c4)CCC[C@H]5NC(=O)c4nc(C(C)(C)C)no4)ccnc3[nH]2)cnn1C1CCOCC1

solubility [1]: 25 µg/mL (≈ 47.7 µM)
SMILES: CC(C)n1cc(-c2nc3c(-c4ccc5c(c4)CCC[C@@H]5NC(=O)c4nc(C(C)(C)C)no4)ccnc3[nH]2)cn1

solubility [1]: 190 µg/mL (≈ 383 µM)
SMILES: Cn1cc(-c2nc3c(-c4ccc5c(c4)CCC[C@@H]5NC(=O)c4nc(C(C)(C)C)no4)ccnc3[nH]2)cn1
